CO/N=C(\C(=O)N[C@@H]1C(=O)N2C(C(=O)O)=C(CSc3nnnn3C)CS[C@H]12)c1csc(N)n1.CO/N=C(\C(=O)N[C@@H]1C(=O)N2C(C(=O)O)=C(CSc3nnnn3C)CS[C@H]12)c1csc(N)n1.Cl
solubility (mole fraction)
Settings	283.15 K	288.15 K	293.15 K	298.15 K	303.15 K	308.15 K	313.15 K
in ethanol	2.61e-05	2.83e-05	3.03e-05	3.17e-05	3.8e-05	4.01e-05	4.68e-05
in methanol	0.000186	0.000196	0.000213	0.000235	0.000253	0.000275	0.000303
in water	3.26e-05	3.59e-05	4.23e-05	4.76e-05	5.29e-05	5.88e-05	6.65e-05

Reference: BigSolDB 2.1
